Measured values: ChEMBL document CHEMBL3881525, “Analogs of dehydrophenylahistins and their therapeutic use” (2007)
pEC50, pIC50: −log10 of the molar value. The source made the active and inactive calls. No cut-off for these calls is given here.

Experiments:
[1] = target: Tubulin alpha (Homo sapiens) (UniProt P0DPH7+P68366+Q71U36+P68363+Q9BQE3+Q6PEY2+A6NHL2+Q9NY65); assay: Induction of alpha-tubulin depolymerization in HUVEC at 200 nM measured after 30 mins by DAPI staining based indirect immunofluorescence analysis; assay type: cell-based
[2] = target: T1, Tubulin (Homo sapiens) (UniProt P68371+Q9H4B7+P0DPH7+P68366+Q13509+Q71U36+P04350+Q3ZCM7+P07437+P68363+Q9BQE3+Q6PEY2+Q13885+Q9BVA1+Q9BUF5); assay: Induction of microtubule instability in human MCF7 cells assessed as time spent for shortening at IC25 for mitotic block measured after 20 hrs by immunofluorescence analysis; assay type: cell-based
[3] = tested on: Rattus norvegicus; assay: Reduction in blood flow in rat kidney at 15 mg/kg, ip measured after 24 hrs by [125I]iodoantipyrine based method relative to vehicle control; assay type: ADME, organism-based; settings: in vivo
[4] = tested on: Rattus norvegicus; assay: Effect on blood flow in rat skin at 15 mg/kg, ip measured after 1 hr by [125I]iodoantipyrine based method relative to vehicle control; assay type: ADME, organism-based; settings: in vivo
[5] = target: T1, Tubulin (Homo sapiens); assay: Induction of microtubule instability in human MCF7 cells assessed as time spent for growth at IC25 for mitotic block measured after 20 hrs by immunofluorescence analysis; assay type: cell-based
[6] = target: T1, Tubulin (Homo sapiens); assay: Induction of microtubule instability in human MCF7 cells assessed as mean shortening rate at IC50 for mitotic block measured after 20 hrs by immunofluorescence analysis; assay type: cell-based
[7] = Antimitotic activity in human MCF7 cells assessed as tubulin foci formation at mitotic block IC50 measured after 20 hrs by immunofluorescence analysis relative to control; assay type: functional
[8] = Antiproliferative activity against human mitoxantrone-sensitive HL60 cells; assay type: functional, cell-based; settings: HL-60
[9] = Antiproliferative activity against taxol-resistant human MES-SA/Dx5 cells expressing MDR1 mRNA and P-gp; assay type: functional, cell-based
[10] = Antifungal activity against Candida glabrata measured after 48 hrs by broth dilution method; assay type: functional; settings: Nakaseomyces glabratus
[11] = target: T1, Tubulin (Homo sapiens); assay: Induction of microtubule instability in human MCF7 cells assessed as rescue frequency at IC50 for mitotic block measured after 20 hrs by immunofluorescence analysis; assay type: cell-based
[12] = tested on: MCF7; assay: Antimitotic activity in human MCF7 cells assessed as microtubule polymer at twice mitotic block IC50 measured after 20 hrs by immunofluorescence analysis relative to control; assay type: functional, cell-based
[13] = target: Cyclin-dependent kinase 1/cyclin B1 (Homo sapiens) (UniProt P06493+P14635); settings: 10 uM
Description: Inhibition of human CDK1/human cyclinB at 10 uM in presence of ATP

[14] = target: T1, Tubulin (Homo sapiens); assay: Induction of microtubule instability in human MCF7 cells assessed as mean growth rate at IC50 for mitotic block measured after 20 hrs by immunofluorescence analysis; assay type: cell-based

Cyclin-dependent kinase 1/cyclin B1 (Homo sapiens), sequence (P06493 whole entry, looked up): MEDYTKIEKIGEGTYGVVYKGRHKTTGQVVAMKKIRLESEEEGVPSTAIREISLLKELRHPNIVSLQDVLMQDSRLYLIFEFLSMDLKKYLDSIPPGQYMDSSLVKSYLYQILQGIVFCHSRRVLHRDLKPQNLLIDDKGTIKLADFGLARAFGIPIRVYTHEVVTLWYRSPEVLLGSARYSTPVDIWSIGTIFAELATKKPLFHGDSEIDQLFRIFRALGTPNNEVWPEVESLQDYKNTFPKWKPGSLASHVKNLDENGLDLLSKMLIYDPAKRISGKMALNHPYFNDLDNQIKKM
Cyclin-dependent kinase 1/cyclin B1 (Homo sapiens), sequence (P14635 whole entry, looked up): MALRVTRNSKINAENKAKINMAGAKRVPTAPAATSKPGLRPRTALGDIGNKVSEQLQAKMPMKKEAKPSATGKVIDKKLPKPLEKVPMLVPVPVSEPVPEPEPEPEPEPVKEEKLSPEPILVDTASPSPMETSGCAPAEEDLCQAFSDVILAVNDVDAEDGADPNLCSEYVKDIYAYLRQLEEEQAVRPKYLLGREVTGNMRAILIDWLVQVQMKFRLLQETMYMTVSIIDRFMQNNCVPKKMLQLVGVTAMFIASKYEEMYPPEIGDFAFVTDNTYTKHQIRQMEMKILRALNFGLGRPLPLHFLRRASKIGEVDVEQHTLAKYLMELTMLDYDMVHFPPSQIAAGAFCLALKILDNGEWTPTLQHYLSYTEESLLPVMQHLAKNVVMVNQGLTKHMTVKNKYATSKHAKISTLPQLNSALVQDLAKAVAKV

## CC(C)(C)c1[nH]cnc1/C=c1\[nH]c(=O)/c(=C/c2ccccc2)[nH]c1=O [PLINABULIN]
[1]
  Activity: Active
[2]
  Activity: 20.5%
  TIME: 0.00333 h
[3]
  Activity: Toxic
[4]
  Activity: Non-Toxic
[5]
  Activity: 29.7%
  TIME: 0.00517 h
[6]
  Activity: 34.1 um/min
[7]
  Activity: 73%
[8]
  pEC50: 8.19
[9]
  pIC50: 7.64 to 7.98
[10]
  MIC: > 32 µg/mL
[11]
  Activity: 2.6 min⁻¹
[12]
  Activity: Active
[13]
  inhibition: > 50%
[14]
  Activity: 10.6 um/min
